We go through 40 compounds from patent EP4480471A1, “SPECIFIC COMPOUNDS FOR TREATING SIGNS OF SKIN AGING AND/OR HAIR AGING” (DSM IP Assets B.V., priority 2023, dated 2024).

This assay deals with human dermal fibroblasts. The assay can be described thus: Senolytic activity study: SA-beta-galactosidase flow cytometry on a mixed 70% normal / 30% senescent cell population. Format: cell-based. As to conditions: 72 hours; for Senescent cells left from 30%: normalized to untreated control, n = 4. The protocol: Normal and senescent cell populations were obtained from normal human dermal fibroblasts. For the normal cell population, the cells were seeded in cell culture medium (Dulbecco's Modified Eagle Medium supplemented with 10% serum and 1% antibiotics) and allowed to adhere and proliferate in a humidified cell incubator maintaining 37°C and 5% CO2. These were then passaged or collected when 90% confluent. For the senescent cell population, the normal fibroblast cells were at this stage shortly exposed to 200 µM H2O2 followed by normal cell culture medium. Several days later, the cells were treated again with H2O2 to obtain a fully senescent population.
Both normal and senescent populations were mixed into a 70% normal and 30% senescent cell population and represented the treatment population. Afterward, the 70% normal and 30% senescent cell population were seeded in cell culture medium and allowed to adhere in the cell incubator. After adherence, the medium was aspirated, and the treatment medium (Dulbecco's Modified Eagle Medium supplemented with 1% serum) containing the respective compounds at various concentrations (see Table 1) was added to the cells. For assay validation purposes, one condition with treatment medium only (without compound as negative control) and one condition with navitoclax (a known senolytic as positive control); both not included in the presented data. The cells were incubated in the cell incubator for at least 72 hours. Afterward, senescence-associated beta-galactosidase was visualized - a well-known senescence marker- in the cells to quantify the senescence levels using flow cytometry.
Data are normalized to the untreated control (30% senescent cells and 70% normal cells) (n = 4).

[1] abbreviates: 25 µM, 70% normal and 30% senescent human dermal fibroblasts.
Setting [2] is: 1 µM, 70% normal and 30% senescent human dermal fibroblasts.
Where [3] appears, read: 5 µM, 70% normal and 30% senescent human dermal fibroblasts.
Where [4] appears, read: concentration not given, human dermal fibroblasts.

For `COc1cc([C@@H]2CC(=O)c3c(O)cc(O)cc3O2)ccc1O` [(I"1)], under setting [1], the Senolytic effect result is “yes” and the “Senescent cells left from 30%” value was determined as 23%.
Turning to `O=C1c2c(O)cc(O)cc2O[C@H](c2cc(O)c(O)c(O)c2)[C@H]1O` [(I"2)], the Senolytic effect entry is, setting by setting: under setting [2], “yes”; under setting [3], “yes”; under setting [1], “yes”.
Turning to `O=C1c2c(O)cc(O)cc2OC(c2cc(O)c(O)c(O)c2)C1O` (centres unmarked) [(I"3)], the Senolytic effect entry reads like this: under setting [2], “yes”; under setting [3], “yes”; under setting [1], “yes”.
As to `COc1ccc(C2CC(=O)c3c(O)cc(O)cc3O2)cc1O` (centres unmarked) [(I"4)], the Senolytic effect result under setting [2] is recorded as “yes”, the Senolytic effect result under setting [3] is listed as “yes” and the Senolytic effect entry under setting [1] was “yes”.
On to `O=C1CC(c2ccccc2)Oc2ccc(O)cc21` (centres unmarked) [(I"5)], for which the Senolytic effect result is, setting by setting: under setting [2], “yes”; under setting [3], “yes”; under setting [1], “yes”.
On to `COc1cc(O)c2c(c1)OC(c1ccccc1)CC2=O` (centres unmarked) [(I"6)], for which the Senolytic effect entry is given as “yes” under setting [2], “yes” under setting [3] and “yes” under setting [1].
For the compound `COc1cc(O)c2c(c1)OC(c1ccc(O)cc1)CC2=O` (centres unmarked) [(I"7)], the Senolytic effect entry by setting is: under setting [2], “yes”; under setting [3], “yes”; under setting [1], “yes”.
Regarding `O=C1CC(c2ccccc2)Oc2cc(O)ccc21` (centres unmarked) [(I"8)], the Senolytic effect entry under setting [2] is given as “yes”, the Senolytic effect entry under setting [3] is given as “yes” and the Senolytic effect entry under setting [4] was “yes”. In addition, the “Senescent cells left from 30%” value by setting is: under setting [2], 24%; under setting [3], 24%.
With `COc1cc(C2CC(=O)c3c(O)cc(O)cc3O2)ccc1O` (centres unmarked) [(I"10)], under setting [1], the Senolytic effect entry is “yes” and the “Senescent cells left from 30%” value turned out to be 22%. Moreover, the Senolytic effect result under setting [4] is reported as “yes”.
In the case of `O=C1CC(c2ccc(O)c(O)c2)Oc2cc(O)cc(O)c21` (centres unmarked) [(I"11)], the Senolytic effect entry under setting [2] is on record as “yes”, the Senolytic effect entry under setting [3] is reported as “yes” and the Senolytic effect result under setting [4] is reported as “yes”.
For `O=c1cc(-c2ccc(O)c(O)c2)oc2c(O)c(O)ccc12` [(I'1)], the Senolytic effect result is, setting by setting: under setting [2], “yes”; under setting [3], “yes”; under setting [1], “yes”.
Regarding `O=c1c(-c2ccc(O)c(O)c2)coc2cc(O)ccc12` [(I'2)], the Senolytic effect entry is, setting by setting: under setting [2], “yes”; under setting [3], “yes”; under setting [1], “yes”.
With `COc1cc(-c2oc3cc(O)ccc3c(=O)c2O)cc(OC)c1OC` [(I'3)], the Senolytic effect entry runs as follows: under setting [2], “yes”; under setting [3], “yes”; under setting [1], “yes”.
Take `COc1cc(C)c2c(=O)c(-c3ccccc3)coc2c1` [(I'4)]: the Senolytic effect result is “yes” under setting [2], “yes” under setting [3] and “yes” under setting [1].
Take `COc1ccc(-c2cc(=O)c3c(OC)cc(OC)cc3o2)cc1` [(I'5)]: the Senolytic effect result under setting [2] is recorded as “yes”, the Senolytic effect result under setting [3] is “yes” and the Senolytic effect entry under setting [1] is listed as “yes”.
As to `COc1cc2oc(-c3ccccc3)cc(=O)c2c(O)c1O` [(I'6)], the Senolytic effect entry runs as follows: under setting [2], “yes”; under setting [3], “yes”; under setting [1], “yes”.
For the compound `COc1ccc(-c2coc3cc(O)cc(O)c3c2=O)cc1` [(I'7)], the Senolytic effect entry under setting [2] is recorded as “yes”, the Senolytic effect result under setting [3] is “yes” and the Senolytic effect result under setting [1] is “yes”.
For the compound `COc1cc(-c2cc(=O)c3c(O)cc(O)cc3o2)ccc1O` [(I'8)], the Senolytic effect entry is listed as “yes” under setting [2], “yes” under setting [3] and “yes” under setting [1].
As for `O=c1cc(-c2ccc(O)cc2)oc2c(-c3c(O)cc(O)c4c(=O)cc(-c5ccc(O)cc5)oc34)c(O)cc(O)c12` [(I'9)], the Senolytic effect result under setting [2] is “yes”, the Senolytic effect result under setting [3] is “yes” and the Senolytic effect entry under setting [1] is listed as “yes”.
`O=c1c(O)c(-c2ccc(O)cc2)oc2c(O)c(O)cc(O)c12` [(I'10)]: the Senolytic effect result is reported as “yes” under setting [3] and “yes” under setting [1].
For the compound `COc1ccc(-c2cc(=O)c3c(O)cc(O[C@@H]4O[C@H](CO)[C@@H](O)[C@H](O)[C@H]4O)cc3o2)cc1O` [(I'11)], the Senolytic effect entry is listed as “yes” under setting [3] and “yes” under setting [1].
`CC1OC(Oc2c(-c3cc(O)c(O)c(O)c3)oc3cc(O)cc(O)c3c2=O)C(O)C(O)C1O` (centres unmarked) [(I'14)]: the Senolytic effect result was “yes” under setting [2], “yes” under setting [3] and “yes” under setting [1].
For the compound `COc1c(O[C@@H]2O[C@H](CO)[C@@H](O)[C@H](O)[C@H]2O)cc2oc(-c3ccc(O)c(O)c3)c(O)c(=O)c2c1O` [(I'15)], the Senolytic effect result by setting is: under setting [2], “yes”; under setting [3], “yes”; under setting [1], “yes”.
For the compound `CC(C)Oc1ccc2c(=O)c(-c3ccccc3)coc2c1` [(I'16)], the Senolytic effect entry under setting [2] is listed as “yes”, the Senolytic effect entry under setting [3] is recorded as “yes” and the Senolytic effect result under setting [1] is listed as “yes”.
Regarding `O=c1c(O)c(-c2ccc(O)cc2)oc2cc(O)cc(O)c12` [(I'17)], the Senolytic effect entry reads like this: under setting [2], “yes”; under setting [3], “yes”; under setting [1], “yes”.
With `COc1c(O)cc2oc(-c3ccc(O)c(O)c3)cc(=O)c2c1O` [(I'18)], the Senolytic effect result runs as follows: under setting [2], “yes”; under setting [3], “yes”; under setting [1], “yes”.
Consider `COc1cc(O)c2c(=O)c(O)c(-c3ccc(O)c(OC)c3)oc2c1` [(I'19)], for which the Senolytic effect result is, setting by setting: under setting [2], “yes”; under setting [3], “yes”; under setting [1], “yes”.
On to `COc1cc(O)c2c(=O)c(O)c(-c3ccc(O)c(O)c3)oc2c1` [(I'20)], for which the Senolytic effect result is “yes” under setting [2], “yes” under setting [3] and “yes” under setting [1].
Regarding `O=c1c(O)c(-c2cc(O)c(O)c(O)c2)oc2cc(O)ccc12` [(I'21)], the Senolytic effect entry runs as follows: under setting [2], “yes”; under setting [3], “yes”; under setting [1], “yes”.
Take `O=c1cc(-c2cc(O)c(O)c(O)c2)oc2cc(O)cc(O)c12` [(I'22)]: the Senolytic effect entry is on record as “yes” under setting [2], “yes” under setting [3] and “yes” under setting [1].
As for `COc1c(-c2ccccc2)oc2ccccc2c1=O` [(I'23)], under setting [1], the Senolytic effect result was “yes” and the “Senescent cells left from 30%” value is listed as 21%. For the same compound, the Senolytic effect entry under setting [4] is recorded as “yes”.
With `COc1cc2oc(-c3ccccc3)cc(=O)c2c(OC)c1OC` [(I'24)], the Senolytic effect result is reported as “yes” under setting [3], “yes” under setting [1] and “yes” under setting [4].
`O=c1c(O)c(-c2ccccc2O)oc2cc(O)cc(O)c12` [(I'25)]: the Senolytic effect entry is given as “yes” under setting [2], “yes” under setting [3] and “yes” under setting [1].
With `O=c1c(-c2ccc(O)cc2)coc2cc(O[C@@H]3O[C@H](CO)[C@@H](O)[C@H](O)[C@H]3O)ccc12` [(I'26)], under setting [2], the Senolytic effect result is “yes” and the “Senescent cells left from 30%” value stood at 25%. Moreover, the Senolytic effect entry under setting [4] is “yes”.
For the compound `COc1ccc(-c2cc(=O)c3c(O)cc(O)cc3o2)cc1O` [(I'27)], the Senolytic effect entry is “yes” under setting [2], “yes” under setting [3] and “yes” under setting [1].
On to `COc1cc2c(=O)c(-c3ccc(O)cc3)coc2cc1O` [(I'28)], for which the Senolytic effect entry runs as follows: under setting [1], “yes”; under setting [4], “yes”. Moreover, the “Senescent cells left from 30%” value under setting [1] amounted to 23%.
For `COc1cc(-c2cc(=O)c3c(O)c(OC)c(OC)c(OC)c3o2)cc(OC)c1OC` [(I'29)], the Senolytic effect result reads like this: under setting [2], “yes”; under setting [3], “yes”; under setting [1], “yes”.
For the compound `COc1cc(-c2coc3cc4c(c(OC)c3c2=O)OCO4)cc(OC)c1OC` [(I'30)], under setting [1], the Senolytic effect entry was “yes” and the “Senescent cells left from 30%” value is reported as 26%. Further, the Senolytic effect entry under setting [4] is given as “yes”.
Take `COc1ccc(-c2cc(=O)c3ccc(O)cc3o2)cc1` [(I'32)]: the Senolytic effect entry under setting [2] is reported as “yes”, the Senolytic effect entry under setting [3] is on record as “yes” and the Senolytic effect result under setting [1] is recorded as “yes”.
For the compound `COc1ccc(-c2cc(=O)c3c(OC)c(OC)c(OC)cc3o2)cc1` [(I'33)], the Senolytic effect entry reads like this: under setting [2], “yes”; under setting [3], “yes”; under setting [1], “yes”.
